Measurements from paper PMC10294627, “PhoPQ Regulates Quinolone and Cephalosporin Resistance Formation in Salmonella Enteritidis at the Transcriptional Level” (mBio, 2023).
Where two headings read alike, the source gives them in different places.

Legend:
[1] = target: T1, His-tagged PhoQ (Salmonella enterica, UniProt P0DM80); test: Phos-tag gel autophosphorylation, membrane extract, anti-His blot; type: biochemical; conditions: with ATP, in vitro
T1 construct: 6xHis-tagged PhoQ, no truncation stated, in membrane extracts of E. coli DH5alpha; anti-His read-out; dimeric histidine kinase

[2] = target: T2, PhoQ^SD (periplasmic sensor domain of PhoQ) (Salmonella enterica, UniProt P0DM80); test: microscale thermophoresis; type: binding
T2 construct: periplasmic sensor domain (residues 45-188 as aligned; exact construct borders in supplement), His-tagged, pET28a, E. coli BL21, Ni-NTA purified, dimer by native-PAGE
From the text: microscale thermophoresis on PhoQ^SD (periplasmic sensor domain of PhoQ) | NAL, CAZ, or ofloxacin, we also obtained well-fitted curves

[3] = target: T2, PhoQ^SD (periplasmic sensor domain of PhoQ); test: differential scanning calorimetry; type: binding; conditions: 20 μM protein, 100 μM ligand, 10 mM sodium phosphate pH 7.4; Tm of complex, apo Tm 52.29 °C
[4] = target: periplasmic sensor domain of PhoQ (PhoQ^SD), His-tagged, S. Enteritidis (Salmonella Enteritidis); test: native gel or EMSA; native-PAGE of PhoQ^SD expressed in E. coli BL21; data not shown

CO/N=C(\C(=O)N[C@@H]1C(=O)N2C(C(=O)[O-])=C(C[N+]3(C)CCCC3)CS[C@H]12)c1csc(N)n1 [cefepime]
Phos-tag gel autophosphorylation, membrane extract, anti-His blot [1]: cephalosporins (ceftazidime, ceftriaxone, and cefepime) or ATP

CC(C)(O/N=C(\C(=O)N[C@@H]1C(=O)N2C(C(=O)[O-])=C(C[n+]3ccccc3)CS[C@H]12)c1csc(N)n1)C(=O)O [ceftazidime]
Kd [2]: 25.6 ± 13.4 µM | Tm [3]: 50.54 °C

CO/N=C(\C(=O)N[C@@H]1C(=O)N2C(C(=O)O)=C(CSc3nc(=O)c(=O)[nH]n3C)CS[C@H]12)c1csc(N)n1 [ceftriaxone]
Phos-tag gel autophosphorylation, membrane extract, anti-His blot [1]: cephalosporins (ceftazidime, ceftriaxone, and cefepime) or ATP

O=C(O)c1cn(C2CC2)c2cc(N3CCNCC3)c(F)cc2c1=O [ciprofloxacin]
Phos-tag gel autophosphorylation, membrane extract, anti-His blot [1]: treated with quinolones (nalidixic acid, ciprofloxacin, and ofloxacin)

CCn1cc(C(=O)O)c(=O)c2ccc(C)nc21 [nalidixic acid]
Kd [2]: 24.7 ± 4.3 µM | Tm [3]: 51.00 °C

CC1COc2c(N3CCN(C)CC3)c(F)cc3c(=O)c(C(=O)O)cn1c23 (stereo not drawn) [ofloxacin]
Kd ([2]; read-out: Kd): 33.1 ± 28.3 µM

periplasmic sensor domain of PhoQ (PhoQ^SD), His-tagged, S. Enteritidis (domain or fragment)
stoichiometry N [4]: 2
